Results published in patent US20230017045A1, “PYRIDINE AND PYRIMIDINE CARBOXYLATE HERBICIDES AND METHODS OF USE THEREOF” (Dow AgroSciences LLC, priority 2017, published 2023).

Each compound was assayed on test plant species (assay: Post-emergent herbicidal activity test (greenhouse, foliar spray, visual growth reduction)). Details: post-emergence, 336 h, ECHCG: barnyardgrass (Echinochloa crus-galli), 140 g ai/ha, 14 days after application, read-out: Visual Growth Reduction (%) 14 Days After Application, ECHCG.
Assay type: in vivo
How it was run: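 Scoring used a 0 to 100 percent visual scale of growth reduction against solvent-treated controls, read 14 d after spraying. Applications went onto plants at first or second true leaf stage, 187 L/ha, with crop oil concentrate and X-77 surfactant in the carrier. Post-treatment watering was by subirrigation to avoid wash-off.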

COC(=O)c1nc(-c2ccc(C(F)(F)F)c(Br)c2Cl)c(F)cc1Cl [F341, Methyl 6-(3-bromo-2-chloro-4-(trifluoromethyl)phenyl)-3-chloro-5-fluoropicolinate] and COC(=O)c1nc(-c2ccc3ccsc3c2F)c(F)cc1Cl [F266, Methyl 3-chloro-5-fluoro-6-(7-fluorobenzo[b]thiophen-6-yl)picolinate] fall in the same range of pest or weed control at 140 g/ha: 0 to 29% for the first, 0 to 29% for the second.

Work on COC(=O)c1nc(-c2ccc(C(F)(F)F)cc2F)c(F)cc1F [F375, Methyl 3,5-difluoro-6-(2-fluoro-4-(trifluoromethyl)phenyl)picolinate] yielded a pest or weed control at 140 g/ha of 85 to 94%.

Same assay, conditions: post-emergence, 336 h, IPOHE: ivy-leaf morning glory (Ipomoea hederacea), 140 g ai/ha, 14 days after application, read-out: Visual Growth Reduction (%) 14 Days After Application, IPOHE

First: COC(=O)c1nc(-c2ccc(C(F)(F)F)c(Br)c2Cl)c(F)cc1Cl [F341, Methyl 6-(3-bromo-2-chloro-4-(trifluoromethyl)phenyl)-3-chloro-5-fluoropicolinate]
Second: COC(=O)c1nc(-c2ccc3ccsc3c2F)c(F)cc1Cl [F266, Methyl 3-chloro-5-fluoro-6-(7-fluorobenzo[b]thiophen-6-yl)picolinate]
The pest or weed control at 140 g/ha of the first is higher: 95 to 100% for the first, 0 to 29% for the second.

In the case of COC(=O)c1nc(-c2ccc(C(F)(F)F)cc2F)c(F)cc1F [F375, Methyl 3,5-difluoro-6-(2-fluoro-4-(trifluoromethyl)phenyl)picolinate], the pest or weed control at 140 g/ha was 95 to 100%.

Same assay, conditions: post-emergence, 336 h, KCHSC: kochia (Bassia scoparia), 140 g ai/ha, 14 days after application, read-out: Visual Growth Reduction (%) 14 Days After Application, KCHSC

First: COC(=O)c1nc(-c2ccc(C(F)(F)F)c(Br)c2Cl)c(F)cc1Cl [F341, Methyl 6-(3-bromo-2-chloro-4-(trifluoromethyl)phenyl)-3-chloro-5-fluoropicolinate]
Second: COC(=O)c1nc(-c2ccc3ccsc3c2F)c(F)cc1Cl [F266, Methyl 3-chloro-5-fluoro-6-(7-fluorobenzo[b]thiophen-6-yl)picolinate]
The pest or weed control at 140 g/ha of the first is higher: 60 to 74% for the first, 0 to 29% for the second.

In the case of COC(=O)c1nc(-c2ccc(C(F)(F)F)cc2F)c(F)cc1F [F375, Methyl 3,5-difluoro-6-(2-fluoro-4-(trifluoromethyl)phenyl)picolinate], the pest or weed control at 140 g/ha was 60 to 74%.

Same assay, conditions: post-emergence, 336 h, ORYSA: rice (Oryza sativa), 140 g ai/ha, 14 days after application, read-out: Visual Growth Reduction (%) 14 Days After Application, ORYSA

COC(=O)c1nc(-c2ccc(C(F)(F)F)c(Br)c2Cl)c(F)cc1Cl [F341, Methyl 6-(3-bromo-2-chloro-4-(trifluoromethyl)phenyl)-3-chloro-5-fluoropicolinate] and COC(=O)c1nc(-c2ccc3ccsc3c2F)c(F)cc1Cl [F266, Methyl 3-chloro-5-fluoro-6-(7-fluorobenzo[b]thiophen-6-yl)picolinate] fall in the same range of pest or weed control at 140 g/ha: 0 to 29% for the first, 0 to 29% for the second.

Compound COC(=O)c1nc(-c2ccc(C(F)(F)F)cc2F)c(F)cc1F [F375, Methyl 3,5-difluoro-6-(2-fluoro-4-(trifluoromethyl)phenyl)picolinate] has a pest or weed control at 140 g/ha of 0 to 29%.

Same assay, conditions: post-emergence, 336 h, SETFA: giant foxtail (Setaria faberi), 140 g ai/ha, 14 days after application, read-out: Visual Growth Reduction (%) 14 Days After Application, SETFA

Compared with COC(=O)c1nc(-c2ccc(C(F)(F)F)c(Br)c2Cl)c(F)cc1Cl [F341, Methyl 6-(3-bromo-2-chloro-4-(trifluoromethyl)phenyl)-3-chloro-5-fluoropicolinate], COC(=O)c1nc(-c2ccc3ccsc3c2F)c(F)cc1Cl [F266, Methyl 3-chloro-5-fluoro-6-(7-fluorobenzo[b]thiophen-6-yl)picolinate] is lower in pest or weed control at 140 g/ha: 85 to 94% for the first, 0 to 29% for the second.

Work on COC(=O)c1nc(-c2ccc(C(F)(F)F)cc2F)c(F)cc1F [F375, Methyl 3,5-difluoro-6-(2-fluoro-4-(trifluoromethyl)phenyl)picolinate] yielded a pest or weed control at 140 g/ha of 85 to 94%.

Same assay, conditions: post-emergence, 336 h, SORVU: grain sorghum (Sorghum vulgare), 140 g ai/ha, 14 days after application, read-out: Visual Growth Reduction (%) 14 Days After Application, SORVU

First: COC(=O)c1nc(-c2ccc(C(F)(F)F)c(Br)c2Cl)c(F)cc1Cl [F341, Methyl 6-(3-bromo-2-chloro-4-(trifluoromethyl)phenyl)-3-chloro-5-fluoropicolinate]
Second: COC(=O)c1nc(-c2ccc3ccsc3c2F)c(F)cc1Cl [F266, Methyl 3-chloro-5-fluoro-6-(7-fluorobenzo[b]thiophen-6-yl)picolinate]
The pest or weed control at 140 g/ha of the first is higher: 95 to 100% for the first, 0 to 29% for the second.

COC(=O)c1nc(-c2ccc(C(F)(F)F)cc2F)c(F)cc1F [F375, Methyl 3,5-difluoro-6-(2-fluoro-4-(trifluoromethyl)phenyl)picolinate] gave a pest or weed control at 140 g/ha of 85 to 94%.

Same assay, conditions: post-emergence, 336 h, STEME: common chickweed (Stellaria media), 140 g ai/ha, 14 days after application, read-out: Visual Growth Reduction (%) 14 Days After Application, STEME

First: COC(=O)c1nc(-c2ccc(C(F)(F)F)c(Br)c2Cl)c(F)cc1Cl [F341, Methyl 6-(3-bromo-2-chloro-4-(trifluoromethyl)phenyl)-3-chloro-5-fluoropicolinate]
Second: COC(=O)c1nc(-c2ccc3ccsc3c2F)c(F)cc1Cl [F266, Methyl 3-chloro-5-fluoro-6-(7-fluorobenzo[b]thiophen-6-yl)picolinate]
The pest or weed control at 140 g/ha of the first is higher: 30 to 44% for the first, 0 to 29% for the second.

COC(=O)c1nc(-c2ccc(C(F)(F)F)cc2F)c(F)cc1F [F375, Methyl 3,5-difluoro-6-(2-fluoro-4-(trifluoromethyl)phenyl)picolinate] was tested, and the pest or weed control at 140 g/ha was 0 to 29%.

Same assay, conditions: post-emergence, 336 h, TRZAS: wheat, spring (Triticum aestivum), 140 g ai/ha, 14 days after application, read-out: Visual Growth Reduction (%) 14 Days After Application, TRZAS

First: COC(=O)c1nc(-c2ccc(C(F)(F)F)c(Br)c2Cl)c(F)cc1Cl [F341, Methyl 6-(3-bromo-2-chloro-4-(trifluoromethyl)phenyl)-3-chloro-5-fluoropicolinate]
Second: COC(=O)c1nc(-c2ccc3ccsc3c2F)c(F)cc1Cl [F266, Methyl 3-chloro-5-fluoro-6-(7-fluorobenzo[b]thiophen-6-yl)picolinate]
The pest or weed control at 140 g/ha of the first is higher: 45 to 59% for the first, 0 to 29% for the second.

COC(=O)c1nc(-c2ccc(C(F)(F)F)cc2F)c(F)cc1F [F375, Methyl 3,5-difluoro-6-(2-fluoro-4-(trifluoromethyl)phenyl)picolinate] was tested, and the pest or weed control at 140 g/ha was 75 to 84%.

Same assay, conditions: post-emergence, 336 h, blackgrass (Alopecurus myosuroides), 14 Days After Application, 140 g ai/ha, read-out: Visual Growth Reduction (%) ALOMY

First: COC(=O)c1nc(-c2ccc(C(F)(F)F)c(Br)c2Cl)c(F)cc1Cl [F341, Methyl 6-(3-bromo-2-chloro-4-(trifluoromethyl)phenyl)-3-chloro-5-fluoropicolinate]
Second: COC(=O)c1nc(-c2ccc3ccsc3c2F)c(F)cc1Cl [F266, Methyl 3-chloro-5-fluoro-6-(7-fluorobenzo[b]thiophen-6-yl)picolinate]
The pest or weed control at 140 g/ha of the first is higher: 30 to 44% for the first, 0 to 29% for the second.

COC(=O)c1nc(-c2ccc(C(F)(F)F)cc2F)c(F)cc1F [F375, Methyl 3,5-difluoro-6-(2-fluoro-4-(trifluoromethyl)phenyl)picolinate] gave a pest or weed control at 140 g/ha of 45 to 59%.

Same assay, conditions: post-emergence, 336 h, canada thistle (Cirsium arvense), 14 Days After Application, 140 g ai/ha, read-out: Visual Growth Reduction (%) CIRAR

First: COC(=O)c1nc(-c2ccc3ccsc3c2F)c(F)cc1Cl [F266, Methyl 3-chloro-5-fluoro-6-(7-fluorobenzo[b]thiophen-6-yl)picolinate]
Second: COC(=O)c1nc(-c2ccc(C(F)(F)F)cc2F)c(F)cc1F [F375, Methyl 3,5-difluoro-6-(2-fluoro-4-(trifluoromethyl)phenyl)picolinate]
The pest or weed control at 140 g/ha of the first is lower: 0 to 29% for the first, 85 to 94% for the second.

Same assay, conditions: post-emergence, 336 h, crabgrass (Digitaria sanguinalis), 14 Days After Application, 140 g ai/ha, read-out: Visual Growth Reduction (%) DIGSA

Compared with COC(=O)c1nc(-c2ccc(C(F)(F)F)c(Br)c2Cl)c(F)cc1Cl [F341, Methyl 6-(3-bromo-2-chloro-4-(trifluoromethyl)phenyl)-3-chloro-5-fluoropicolinate], COC(=O)c1nc(-c2ccc3ccsc3c2F)c(F)cc1Cl [F266, Methyl 3-chloro-5-fluoro-6-(7-fluorobenzo[b]thiophen-6-yl)picolinate] is lower in pest or weed control at 140 g/ha: 85 to 94% for the first, 0 to 29% for the second.

Compound COC(=O)c1nc(-c2ccc(C(F)(F)F)cc2F)c(F)cc1F [F375, Methyl 3,5-difluoro-6-(2-fluoro-4-(trifluoromethyl)phenyl)picolinate] has a pest or weed control at 140 g/ha of 85 to 94%.

Same assay, conditions: post-emergence, 336 h, lambsquarters (Chenopodium album), 14 Days After Application, 140 g ai/ha, read-out: Visual Growth Reduction (%) CHEAL

First: COC(=O)c1nc(-c2ccc(C(F)(F)F)c(Br)c2Cl)c(F)cc1Cl [F341, Methyl 6-(3-bromo-2-chloro-4-(trifluoromethyl)phenyl)-3-chloro-5-fluoropicolinate]
Second: COC(=O)c1nc(-c2ccc3ccsc3c2F)c(F)cc1Cl [F266, Methyl 3-chloro-5-fluoro-6-(7-fluorobenzo[b]thiophen-6-yl)picolinate]
The pest or weed control at 140 g/ha of the first is higher: 85 to 94% for the first, 0 to 29% for the second.

For COC(=O)c1nc(-c2ccc(C(F)(F)F)cc2F)c(F)cc1F [F375, Methyl 3,5-difluoro-6-(2-fluoro-4-(trifluoromethyl)phenyl)picolinate], the pest or weed control at 140 g/ha was 85 to 94%.

Same assay, conditions: post-emergence, 336 h, redroot pigweed (Amaranthus retroflexus), 14 Days After Application, 140 g ai/ha, read-out: Visual Growth Reduction (%) AMARE

First: COC(=O)c1nc(-c2ccc(C(F)(F)F)c(Br)c2Cl)c(F)cc1Cl [F341, Methyl 6-(3-bromo-2-chloro-4-(trifluoromethyl)phenyl)-3-chloro-5-fluoropicolinate]
Second: COC(=O)c1nc(-c2ccc3ccsc3c2F)c(F)cc1Cl [F266, Methyl 3-chloro-5-fluoro-6-(7-fluorobenzo[b]thiophen-6-yl)picolinate]
The pest or weed control at 140 g/ha of the first is higher: 95 to 100% for the first, 0 to 29% for the second.

COC(=O)c1nc(-c2ccc(C(F)(F)F)cc2F)c(F)cc1F [F375, Methyl 3,5-difluoro-6-(2-fluoro-4-(trifluoromethyl)phenyl)picolinate] was tested, and the pest or weed control at 140 g/ha was 95 to 100%.

Same assay, conditions: post-emergence, 336 h, wild oat (Avena fatua), 14 Days After Application, 140 g ai/ha, read-out: Visual Growth Reduction (%) AVEFA

First: COC(=O)c1nc(-c2ccc(C(F)(F)F)c(Br)c2Cl)c(F)cc1Cl [F341, Methyl 6-(3-bromo-2-chloro-4-(trifluoromethyl)phenyl)-3-chloro-5-fluoropicolinate]
Second: COC(=O)c1nc(-c2ccc3ccsc3c2F)c(F)cc1Cl [F266, Methyl 3-chloro-5-fluoro-6-(7-fluorobenzo[b]thiophen-6-yl)picolinate]
The pest or weed control at 140 g/ha of the first is higher: 45 to 59% for the first, 0 to 29% for the second.

For COC(=O)c1nc(-c2ccc(C(F)(F)F)cc2F)c(F)cc1F [F375, Methyl 3,5-difluoro-6-(2-fluoro-4-(trifluoromethyl)phenyl)picolinate], the pest or weed control at 140 g/ha was 60 to 74%.

Same assay, conditions: post-emergence, 336 h, yellow nutsedge (Cyperus esculentus), 14 Days After Application, 140 g ai/ha, read-out: Visual Growth Reduction (%) CYPES

COC(=O)c1nc(-c2ccc(C(F)(F)F)c(Br)c2Cl)c(F)cc1Cl [F341, Methyl 6-(3-bromo-2-chloro-4-(trifluoromethyl)phenyl)-3-chloro-5-fluoropicolinate] and COC(=O)c1nc(-c2ccc3ccsc3c2F)c(F)cc1Cl [F266, Methyl 3-chloro-5-fluoro-6-(7-fluorobenzo[b]thiophen-6-yl)picolinate] fall in the same range of pest or weed control at 140 g/ha: 0 to 29% for the first, 0 to 29% for the second.

COC(=O)c1nc(-c2ccc(C(F)(F)F)cc2F)c(F)cc1F [F375, Methyl 3,5-difluoro-6-(2-fluoro-4-(trifluoromethyl)phenyl)picolinate] showed a pest or weed control at 140 g/ha of 0 to 29%.
